Laboratory results reported in the NIST ThermoML archive (doi:10.1016/j.jct.2015.08.014).

Test: xn = mol fraction of the nth substance listed
Conditions: 100 kPa, Liquid; for electrical conductivity: Alternating current cell with electrodes; for mass density: Vibrating tube method; for viscosity: Capillary tube (Ostwald / Ubbelohde) method

CCCC[N+]1(C)CCCC1.N#CN=C=[N-] [1-butyl-1-methylpyrrolidinium dicyanamide] + O=C1CCCO1
Conditions	electrical conductivity [S/m]
313.15 K, Frequency=0.00694444 MHz, x1 = 0.4985	2.88
313.15 K, Frequency=0.00694444 MHz, x1 = 0.6954	2.43
313.15 K, Frequency=0.00694444 MHz, x1 = 0.9013	2.09
313.15 K, Frequency=0.00694444 MHz, x1 = 1	2
313.15 K, Frequency=0.0075 MHz, x1 = 0.0463	1.79
313.15 K, Frequency=0.0075 MHz, x1 = 0.0987	2.73
313.15 K, Frequency=0.0075 MHz, x1 = 0.1449	3.13
313.15 K, Frequency=0.0075 MHz, x1 = 0.1859	3.37
313.15 K, Frequency=0.0075 MHz, x1 = 0.2493	3.36
313.15 K, Frequency=0.0075 MHz, x1 = 0.3029	3.321
313.15 K, Frequency=0.0075 MHz, x1 = 0.3845	3.16
313.15 K, Frequency=0.0075 MHz, x1 = 0.4985	2.88
313.15 K, Frequency=0.0075 MHz, x1 = 0.6954	2.43
313.15 K, Frequency=0.0075 MHz, x1 = 0.9013	2.09
313.15 K, Frequency=0.0075 MHz, x1 = 1	2
313.15 K, Frequency=0.008 MHz, x1 = 0.0463	1.79
313.15 K, Frequency=0.008 MHz, x1 = 0.0987	2.73
313.15 K, Frequency=0.008 MHz, x1 = 0.1449	3.13
313.15 K, Frequency=0.008 MHz, x1 = 0.1859	3.37
313.15 K, Frequency=0.008 MHz, x1 = 0.2493	3.36
313.15 K, Frequency=0.008 MHz, x1 = 0.3029	3.321
313.15 K, Frequency=0.008 MHz, x1 = 0.3845	3.16
313.15 K, Frequency=0.008 MHz, x1 = 0.4985	2.88
313.15 K, Frequency=0.008 MHz, x1 = 0.6954	2.43
313.15 K, Frequency=0.008 MHz, x1 = 0.9013	2.09
313.15 K, Frequency=0.008 MHz, x1 = 1	2
313.15 K, Frequency=0.00857143 MHz, x1 = 0.0463	1.79
313.15 K, Frequency=0.00857143 MHz, x1 = 0.0987	2.73
313.15 K, Frequency=0.00857143 MHz, x1 = 0.1449	3.13
313.15 K, Frequency=0.00857143 MHz, x1 = 0.1859	3.37
313.15 K, Frequency=0.00857143 MHz, x1 = 0.2493	3.36
313.15 K, Frequency=0.00857143 MHz, x1 = 0.3029	3.321
313.15 K, Frequency=0.00857143 MHz, x1 = 0.3845	3.16
313.15 K, Frequency=0.00857143 MHz, x1 = 0.4985	2.88
313.15 K, Frequency=0.00857143 MHz, x1 = 0.6954	2.43
313.15 K, Frequency=0.00857143 MHz, x1 = 0.9013	2.09
313.15 K, Frequency=0.00857143 MHz, x1 = 1	2
313.15 K, Frequency=0.00892857 MHz, x1 = 0.0463	1.79
313.15 K, Frequency=0.00892857 MHz, x1 = 0.0987	2.73
313.15 K, Frequency=0.00892857 MHz, x1 = 0.1449	3.13
313.15 K, Frequency=0.00892857 MHz, x1 = 0.1859	3.37
313.15 K, Frequency=0.00892857 MHz, x1 = 0.2493	3.36
313.15 K, Frequency=0.00892857 MHz, x1 = 0.3029	3.321
313.15 K, Frequency=0.00892857 MHz, x1 = 0.3845	3.16
313.15 K, Frequency=0.00892857 MHz, x1 = 0.4985	2.88
313.15 K, Frequency=0.00892857 MHz, x1 = 0.6954	2.43
313.15 K, Frequency=0.00892857 MHz, x1 = 0.9013	2.09
313.15 K, Frequency=0.00892857 MHz, x1 = 1	2
313.15 K, Frequency=0.00961538 MHz, x1 = 0.0463	1.79
313.15 K, Frequency=0.00961538 MHz, x1 = 0.0987	2.73
313.15 K, Frequency=0.00961538 MHz, x1 = 0.1449	3.13
313.15 K, Frequency=0.00961538 MHz, x1 = 0.1859	3.37
313.15 K, Frequency=0.00961538 MHz, x1 = 0.2493	3.36
313.15 K, Frequency=0.00961538 MHz, x1 = 0.3029	3.322
313.15 K, Frequency=0.00961538 MHz, x1 = 0.3845	3.16
313.15 K, Frequency=0.00961538 MHz, x1 = 0.4985	2.88
313.15 K, Frequency=0.00961538 MHz, x1 = 0.6954	2.43
313.15 K, Frequency=0.00961538 MHz, x1 = 0.9013	2.09
313.15 K, Frequency=0.00961538 MHz, x1 = 1	2
313.15 K, Frequency=0.01 MHz, x1 = 0.0463	1.79
313.15 K, Frequency=0.01 MHz, x1 = 0.0987	2.73
313.15 K, Frequency=0.01 MHz, x1 = 0.1449	3.13
313.15 K, Frequency=0.01 MHz, x1 = 0.1859	3.37
313.15 K, Frequency=0.01 MHz, x1 = 0.2493	3.36
313.15 K, Frequency=0.01 MHz, x1 = 0.3029	3.322
313.15 K, Frequency=0.01 MHz, x1 = 0.3845	3.16
313.15 K, Frequency=0.01 MHz, x1 = 0.4985	2.88
313.15 K, Frequency=0.01 MHz, x1 = 0.6954	2.43
313.15 K, Frequency=0.01 MHz, x1 = 0.9013	2.09
313.15 K, Frequency=0.01 MHz, x1 = 1	2
323.15 K, Frequency=0.0005 MHz, x1 = 0.0463	1.99
323.15 K, Frequency=0.0005 MHz, x1 = 0.0987	3.06
323.15 K, Frequency=0.0005 MHz, x1 = 0.1449	3.56
323.15 K, Frequency=0.0005 MHz, x1 = 0.1859	3.816
323.15 K, Frequency=0.0005 MHz, x1 = 0.2493	3.88
323.15 K, Frequency=0.0005 MHz, x1 = 0.3029	3.85
323.15 K, Frequency=0.0005 MHz, x1 = 0.3845	3.726
323.15 K, Frequency=0.0005 MHz, x1 = 0.4985	3.45
323.15 K, Frequency=0.0005 MHz, x1 = 0.6954	2.99
323.15 K, Frequency=0.0005 MHz, x1 = 0.9013	2.622
323.15 K, Frequency=0.0005 MHz, x1 = 1	2.525
323.15 K, Frequency=0.001 MHz, x1 = 0.0463	2

Conditions	electrical conductivity, 323.15 K [S/m]	mass density, 313.15 K [kg/m3]	viscosity, 323.15 K [mPa·s]
x1 = 0.0463	2.01	–	–
x1 = 0.0987	3.08	1090.51	1.87
x1 = 0.1449	3.57	–	–
x1 = 0.1859	3.85	1075.67	2.58
x1 = 0.2493	3.89	–	–
x1 = 0.3029	3.88	1059.04	3.77
x1 = 0.3845	3.74	–	–
x1 = 0.4985	3.46	1037.83	6.36
x1 = 0.6954	2.99	1022.16	9.69
x1 = 0.9013	2.633	1009.87	13.92
x1 = 1	2.529	1005.06	16.15
